Source: patent US20230286947A1, “COMPLEMENT FACTOR B INHIBITOR, AND PHARMACEUTICAL COMPOSITION, PREPARATION METHOD AND USE THEREOF” (SHANGHAI MEIYUE BIOTECH DEVELOPMENT CO. LTD, priority 2020, published 2023)
Blank lines part the entries; values can stand above or below the compound they belong to.

Key:
[1] = target: T1, complement factor B in human serum (Homo sapiens, UniProt P00751); test: Complement hemolytic activity assay (rabbit erythrocytes, normal human serum); assay type: cell-based; conditions: for IC50: rabbit erythrocytes, normal human serum, 37° C., read-out: Hemolysis IC50
T1 construct: from tissue; host or cells: normal human serum (NHS)
T1 sequence (P00751 26-764): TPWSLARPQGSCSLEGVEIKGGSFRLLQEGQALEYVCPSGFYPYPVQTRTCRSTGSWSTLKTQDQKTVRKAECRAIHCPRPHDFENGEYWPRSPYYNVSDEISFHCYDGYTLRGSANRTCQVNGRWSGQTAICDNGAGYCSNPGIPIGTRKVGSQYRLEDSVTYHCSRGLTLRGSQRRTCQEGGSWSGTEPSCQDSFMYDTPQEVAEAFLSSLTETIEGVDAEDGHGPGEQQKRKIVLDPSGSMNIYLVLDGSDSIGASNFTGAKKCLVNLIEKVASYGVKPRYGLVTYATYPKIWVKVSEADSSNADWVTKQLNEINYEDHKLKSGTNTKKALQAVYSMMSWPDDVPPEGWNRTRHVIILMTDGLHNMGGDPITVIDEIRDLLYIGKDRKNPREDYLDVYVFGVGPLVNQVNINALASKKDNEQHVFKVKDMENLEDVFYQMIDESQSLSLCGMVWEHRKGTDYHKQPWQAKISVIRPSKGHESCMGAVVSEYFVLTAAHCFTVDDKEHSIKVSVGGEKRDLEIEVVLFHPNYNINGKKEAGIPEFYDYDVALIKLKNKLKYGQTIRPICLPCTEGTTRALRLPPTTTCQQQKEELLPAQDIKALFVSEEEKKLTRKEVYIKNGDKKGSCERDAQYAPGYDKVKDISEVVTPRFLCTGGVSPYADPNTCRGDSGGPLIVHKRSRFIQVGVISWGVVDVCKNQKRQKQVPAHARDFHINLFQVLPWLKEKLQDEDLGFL
Procedure: The hemolysis experiment was carried out by referring to the description in Xuan Yuan et al., Haematologica. […] Prior to the experiment, the optimal concentration of normal human serum (NHS) required to achieve 100% lysis of rabbit erythrocytes (REs) was obtained by titration testing. […] REs (collected from healthy Japanese big-ear white rabbits) freshly suspended in a GVBO buffer comprising 10 mM Mg-EGTA were added to a final concentration of 1×10^8 cells/mL and incubated at 37° C. for 30 min. A GVBO buffer comprising 10 mM Mg-EGTA and comprising NHS and RE but no test compound was used as a positive control group (100% lysis). A GVBO buffer comprising 10 mM Mg-EGTA and comprising inactivated NHS (heated at 56° C. for 30 min or at 65° C. for 5 min) and RE but no test compound was used as a negative control group (0% lysis). The samples were centrifuged at 2000 g for 5 min, and the supernatant was collected. Absorbance at 415 nm (A415) was measured using a microplate reader (Molecular Devices, SpectraMax i3X). IC50 values were calculated from percent hemolysis as a function of test compound concentration by non-linear regression.

Complement factor B = Complement factor B (Homo sapiens, UniProt P00751); test: Optical surface plasmon resonance (SPR) binding capacity assay; conditions: for Rmax (RU): test compound 500 μM, 25° C., 1:1 binding model; for binding capacity to the target protein compared with the control compound: at a concentration of 500 μM
Complement factor B, sequence (P00751 26-764): as above
Procedure: An SPR experiment was carried out at 25° C. In the experiment, a PBS buffer supplemented with 0.05% (v/v) P20 and 5% DMSO was used as a running buffer, and the analytical instrument Biacore 8K of GE Healthcare was used. A CM7 ship (GE Healthcare) was activated with 400 mM EDC and 100 mM NHS at a flow rate of 30 μL/min for 420 s. […] Then the assay chip was treated with 1 M ethanolamine hydrochloride at a flow rate of 10 μL/min for 300 s for chip blocking. The concentration of the test compound was 500 μM, the binding time was 120 s, and the dissociation time was 300 s. Data analysis was performed using a 1:1 binding model (Biacore Insight Evalution Software, Version 2.0.15.12933).

[2] = Liver microsomal stability experiment (monkey); assay type: in vitro ADME; conditions: cynomolgus monkey liver microsomes; for half-life at 1 µM: pH 7.4, NADPH, read-out: MMS (monkey) T1/2
Procedure: (§1) A 0.1 M solution of potassium dihydrogen phosphate in distilled water (comprising 1 mM ethylenediaminetetraacetic acid) was taken. Then the pH was adjusted to 7.4 with the 0.1 M solution of dipotassium phosphate in distilled water (comprising 1 mM ethylenediaminetetraacetic acid).
Monkey: Cynomolgus Monkey Liver Microsomes, Cat. No.: LM-SXH-02M, RILD Research Institute for Liver Diseases (Shanghai) Co. Ltd.
(§2) A 10 mM solution of each of the control compound and test compounds was prepared in DMSO. Then 10 μL of the solution was added to 190 μL of acetonitrile to form a 0.5 mM mother liquor. 1.5 μL of the 0.5 mM compound mother liquor was measured out, and […] of 20 mg/mL liver microsomes and 479.75 μL of the buffer were added. (The actual preparation amount can be adjusted according to use).
(§3) A 10 mg/mL solution of reduced coenzyme II (NADPH) was prepared in the buffer. A 96-well plate was placed on ice. Wells corresponding to different time points (0, 10, 30, 60 and 90 min, Non-NADPH) were set for each compound. 30 μL of the working solution was added to each well. For 0 min wells, 155 μL of glacial acetonitrile solution (the internal standard concentration was 1 μM) was added first, and after the mixtures were well mixed using a pipet, 15 μL of NADPH (10 mg/mL) was added. Before the reactions were started, the 96-well plate was pre-incubated on a microplate shaker at 37° C. for 5 min. Then 15 μL of NADPH (10 mg/mL) was added to each well to start the metabolic reactions. After the reactions were carried out for 10, 30, 60 and 90 min, 155 μL of glacial acetonitrile solution (the internal standard concentration was 1 μM) was added to the corresponding wells to terminate the reactions. After 90 min, the reaction in the Non-NADPH system was terminated by adding 155 μL of glacial acetonitrile solution (the internal standard concentration was 1 μM). After the reaction was completed, the 96-well plate was shaken on a microplate shaker (600 rpm) for 10 min and then centrifuged at 4° C. at 4000 g for 15 min. 50 μL of the supernatant was added to a new 2 mL 96-well plate, and 300 μL of deionized water was added. The mixture was analyzed on an AB SCIEX ExionLC-Triple Quad 5500 high performance liquid chromatograph-mass spectrometer. The Analyst 1.6.3 software was used.

[3] = Liver microsomal stability experiment (human); assay type: in vitro ADME; conditions: for MMS (human) Remaining (T = 90 min): human liver microsomes; for half-life at 1 µM: pooled liver microsomes, pH 7.4, NADPH, read-out: MMS (human) T1/2
Procedure: as §1
Human – Pooled Human Liver Microsomes (Mongolian), Cat. No.: LM-R-02M, RILD Research Institute for Liver Diseases (Shanghai) Co. Ltd.
as §2, §3

[4] = PK experiment of single intragastric administration to rats; assay type: in vivo; conditions: male, Wistar Han, plasma, po, rat, 3 mg/kg, mean
Procedure: Six- to nine-week-old male Wistar han rats (from Shanghai Sippe-Bk Lab Animal Co., Ltd.) were fasted overnight. Each group consisted of 3 rats, and they were given the control compound, the compound of Example 5 and the compound of Example 6, respectively, by intragastric administration at 3 mg/kg at a volume of 10 mL/kg. 0.2 mL of blood was collected from the jugular vein at each time point, anticoagulated with EDTA-K2 and immediately centrifuged at 4000 rpm at 4° C. for 5 min. The supeatant was collected. The samples were cryopreserved in a freezer at −80° C. before analysis. Time points of blood collection: before administration, 5 min 15 min, 30 min, 1 h, 2 h, 4 h, 7 h and 24 h. […] After blood collection at all of the time points was completed, the animals were euthanized. The plasma samples were analyzed by LC-MS/MS. The data were used to calculate kinetic parameters (Tmax, Cmax, T½ and AUC) in the WinNonlin software.

[5] = Liver microsomal stability experiment (rat); assay type: in vitro ADME; conditions: for half-life at 1 µM: SD, pH 7.4, NADPH, read-out: MMS (rat) T1/2; for half-life at 1 µM / MMS (rat) Remaining (T = 90 min): rat liver microsomes; for liver microsomal stability (in words): statement covers rat, monkey and human liver microsomes (Table 3)
Procedure: as §1
Rat: SD Rat Liver Microsomes, Cat. No.: LM-DS-02M, RILD Research Institute for Liver Diseases (Shanghai) Co. Ltd.
as §2, §3

[6] = tested on: Streptococcus-induced rheumatoid arthritis; test: Streptococcus-induced rheumatoid arthritis (RA) model in rats; assay type: in vivo, Lewis rats; conditions: 15 mpk intragastric daily for 25 days, FIG. 3
Procedure: In the experiment, six- to nine-week-old female Lewis rats (Beijing Vital River) were used. Each group consisted of 6 rats, and they were given the cell wall peptidoglycan complexes of Streptococcus and several other species of bacteria by intraperitoneal administration (2-3 mg per rat) on D1, and were given the control compound (15 mpk) and Example 5 (15 mpk) by intragastric administration daily for 25 consecutive days. The arthritis in rats was scored in different phases. The scoring criteria are as follows: Scoring according to the degree of lesion (redness and swelling) was performed on a scale of 0-4 points, with a maximum score of 4 for each limb and a total maximum score of 16 for each animal's limbs. The scoring criteria are as follows: 0 points: no redness and swelling; 1 point: 1-2 red and swollen interphalangeal joints; 2 points: 3-4 red and swollen interphalangeal joints; 3 points: more than 4 red and swollen interphalangeal joints; 4 points: severe redness and swelling in toes or fingers to ankle joints or wrist joints.

[7] = PK/PD experiment of single intragastric administration to cynomolgus monkeys: plasma concentration; assay type: in vivo; conditions: same dose (3 & 30 mpk), FIG. 1
Procedure: Cynomolgus monkeys were used. Each group consisted of 3 cynomolgus monkeys, and they were given the control compound and the compound of Example 5 (3 & 30 mpk) by intragastric administration. Blood was collected at different time points and analyzed for drug concentration and complement activity. The drug concentration in plasma was determined by LC-MS/MS. The complement activity in serum was determined using a wieslab assay (Svar Life Science AB, COMPL AP330 RUO) kit, Normal Human Serum (Complement Technology, NHS).

Structure (SMILES): COc1cc(C)c2[nH]ccc2c1CN1CC[C@H](OC2CC(F)(F)C2)C[C@H]1c1ccc(C(=O)O)cc1 [Example 16]
IC50 [1]: 188 nM

Rmax (RU) (Complement factor B): 30.7 RU
Structure (SMILES): COc1cc(C)c2[nH]ccc2c1CN1CCC(C(F)F)CC1c1ccc(C(=O)O)cc1 (stereo not shown) [Example 10]
IC50 [1]: 611 nM

Structure (SMILES): COc1cc(C)c2[nH]ccc2c1CN1CC[C@H](OC2CC2)C[C@H]1c1ccc(C(=O)O)cc1 [Example 3]
IC50 [1]: 216 nM

Structure (SMILES): COc1cc(C)c2[nH]ccc2c1CN1CC[C@H](OCC2CC2(F)F)C[C@H]1c1ccc(C(=O)O)cc1 (stereo partly shown) [Example 25]
IC50 [1]: 234 nM

Structure (SMILES): COc1cc(C)c2[nH]ccc2c1CN1CC[C@H](OCC2CC2)C[C@H]1c1ccc(-c2nn[nH]n2)cc1 [Example 26]
IC50 [1]: 319 nM

Structure (SMILES): COc1cc(C)c2[nH]ccc2c1CN1CCC2CC2[C@H]1c1ccc(C(=O)O)cc1 (stereo partly shown) [Example 22]
IC50 [1]: 184 nM

Rmax (RU) (Complement factor B): 47.7 RU
Structure (SMILES): COc1cc(C)c2[nH]ccc2c1CN1CCC2(CC1c1ccc(C(=O)O)cc1)CC2(F)F (stereo not shown) [Example 8]
IC50 [1]: 358 nM

MMS (monkey) Remaining (T = 90 min) [2]: 60.37%
half-life at 1 µM [2]: 2.17 h
MMS (human) Remaining (T = 90 min) [3]: 74.57%
half-life at 1 µM [3]: 3.96 h
Rmax (RU) (Complement factor B): 106.5 RU
AUC(0-inf) [4]: 2260 ng·h/mL
AUC(0-t) [4]: 2190 ng·h/mL
Cmax [4]: 1180 ng/mL
Tmax [4]: 0.25 h
half-life [4]: 2.28 h
half-life at 1 µM [5]: 0.986 h
MMS (rat) Remaining (T = 90 min) [5]: 33.55%
Structure (SMILES): COc1cc(C)c2[nH]ccc2c1CN1CC[C@H](OCC2CCC2)C[C@H]1c1ccc(C(=O)O)cc1 [Example 6]
IC50 [1]: 217 nM
binding capacity to the target protein compared with the control compound (Complement factor B): significantly better than the control compound
liver microsomal stability (in words) [5]: more significant liver microsomal stability

MMS (monkey) Remaining (T = 90 min) [2]: 80.68%
half-life at 1 µM [2]: 6.07 h
MMS (human) Remaining (T = 90 min) [3]: 84.79%
half-life at 1 µM [3]: 6.94 h
Rmax (RU) (Complement factor B): 29.1 RU
half-life at 1 µM [5]: 3.68 h
MMS (rat) Remaining (T = 90 min) [5]: 72.23%
Structure (SMILES): COc1cc(C)c2[nH]ccc2c1CN1CC[C@H](OC2CCC2)C[C@H]1c1ccc(C(=O)O)cc1 [Example 4]
IC50 [1]: 280 nM
liver microsomal stability (in words) [5]: more significant liver microsomal stability

Structure (SMILES): CCO[C@H]1CCN(Cc2c(OC)cc(C)c3[nH]ccc23)[C@H](c2ccc(C(=O)O)cc2)C1 [Control compound, reference compound]
arthritis score [6]: can improve the arthritis score
AUC(0-inf) [4]: 2730 ng·h/mL
AUC(0-t) [4]: 2530 ng·h/mL
Cmax [4]: 784 ng/mL
Tmax [4]: 0.33 h
half-life [4]: 2.42 h

MMS (monkey) Remaining (T = 90 min) [2]: 93.32%
half-life at 1 µM [2]: 12.8 h
MMS (human) Remaining (T = 90 min) [3]: 91.04%
half-life at 1 µM [3]: 11.2 h
Rmax (RU) (Complement factor B): 274.2 RU
AUC(0-inf) [4]: 3280 ng·h/mL
AUC(0-t) [4]: 3120 ng·h/mL
Cmax [4]: 1920 ng/mL
Tmax [4]: 0.25 h
half-life [4]: 1.58 h
half-life at 1 µM [5]: 9.13 h
MMS (rat) Remaining (T = 90 min) [5]: 89.14%
Structure (SMILES): COc1cc(C)c2[nH]ccc2c1CN1CC[C@H](OCC2CC2)C[C@H]1c1ccc(C(=O)O)cc1 [Example 5]
mean plasma concentration compared with the control compound [7]: significantly higher mean plasma concentration than the control compound
arthritis score [6]: can improve the arthritis score
effect on arthritis score compared with the control compound [6]: significantly better effect than the control compound
inhibitory activity against complement factor B in human serum compared with the control compound ([1]; hemolysis of rabbit erythrocytes): significantly better inhibitory activity against complement factor B in human serum than the control compound
IC50 [1]: 87.9 nM
binding capacity to the target protein compared with the control compound (Complement factor B): significantly better than the control compound
liver microsomal stability (in words) [5]: more significant liver microsomal stability

Rmax (RU) (Complement factor B): 21.6 RU
Structure (SMILES): COc1cc(C)c2[nH]ccc2c1CN1CC[C@H](OC(F)(F)F)C[C@H]1c1ccc(C(=O)O)cc1 [Example 7]
IC50 [1]: 228 nM

Structure (SMILES): CCOC1CC(c2ccc(C(=O)O)cc2)N(Cc2c(OC)cc(C)c3[nH]ccc23)C2CC12 (stereo not shown) [Example 23]
IC50 [1]: 853 nM

Rmax (RU) (Complement factor B): 23.3 RU
Structure (SMILES): COc1cc(C)c2[nH]ccc2c1CN1CCC(C(F)(F)F)CC1c1ccc(C(=O)O)cc1 (stereo not shown) [Example 9]
IC50 [1]: 725 nM

Structure (SMILES): COc1cc(C)c2[nH]ccc2c1CN1CCC(C)(F)CC1c1ccc(C(=O)O)cc1 (stereo not shown) [Example 17]
IC50 [1]: 391 nM
